Test [1] has as its system Arabidopsis Col-0 seedlings (primary root). The following applies: cited from earlier work. As for the experimental part: page 3: EMBO reports - Peer Review Process File - EMBO-2016-43535 including a report from the same group (Kinoshita et al, 2007 Plant Cell Physiol 48:1821; Whitford et al, 2008 PNAS 105:18625; Depuydt et al. 2013 PNAS 110:7074) where CLE6 peptides exert the root shortening activity only at a very high concentration (10 µM). Results on CLE8, CLE16, CLE17, CLE20 and CLE22 are also different from the previous report (Depuydt et al. 2013). […] Please indicate the meaning of the asterisks in column "Col-0" in Figure 2B, "***a" and "***b" in Figure 2C, describe all the peptide sequences used in this study and re-confirm if the results are correct and reproducible. The details are the following.” ….and subordinate comments.

Test [2] deals with BAM1. The following applies: CLE9gp arabinosylated, CLE9p non-arabinosylated; ref Shinohara et al., 2012; cited from earlier work. The text has this:
“6. We'd also like the authors to answer or discuss following aspects in the discussion part.” “6-1. How do you explain the insensitivity of crn to all CLE peptides? Does it control expression of CLV as well?” At this point we can only speculate on this. As we highlight in the discussion, maybe the expression of other, yet to be identified CLE receptors in the root also depends on CR ...

The target of test [3] is IDA peptide (Arabidopsis thaliana) (UniProt Q8LAD7). The following applies: cited from earlier work.
Sequence of IDA peptide (Arabidopsis thaliana) (Q8LAD7 27-77): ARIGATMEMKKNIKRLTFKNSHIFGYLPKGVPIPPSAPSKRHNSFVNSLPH
Test [4] shares this target. The following applies: cited from earlier work. This is another data set of the same source.
Test [5] relates to Arabidopsis Col-0 seedlings (primary root). Description: Root growth assay, wild type (Col-0). Format: in vivo, Arabidopsis thaliana. Particulars: 50 nM peptide, 9-day-old seedlings, primary root length, n ≥ 12. Here is the method: Plant tissue culture, plant transformation, and common molecular biology procedures such as genomic DNA isolation, genotyping, sequencing, and peptide or inhibitor treatments were performed according to standard procedures as previously described 9, 19, 44, 65.
All mutant and transgenic lines were in the Arabidopsis Columbia‐0 (Col‐0) background. The following previously described mutant alleles were used throughout: brx‐2, bam3‐2, brx‐2 bam3, clv2‐1, serk1‐1 and serk1‐3, serk2‐1, serk3‐1, serk4‐1, serk5‐1 9, 47, 59, 66, 67, 68. The crn loss‐of‐function mutant allele (crn‐10) carries a single nucleotide insertion in front of the 7th codon, which leads to a frameshift and three subsequent premature stop codons after amino acid 10 52.

Like-named read-outs stand apart in the source and are kept apart here. Where no end group is shown, it is not given here.

Sequence of HAESA (P47735 15-621): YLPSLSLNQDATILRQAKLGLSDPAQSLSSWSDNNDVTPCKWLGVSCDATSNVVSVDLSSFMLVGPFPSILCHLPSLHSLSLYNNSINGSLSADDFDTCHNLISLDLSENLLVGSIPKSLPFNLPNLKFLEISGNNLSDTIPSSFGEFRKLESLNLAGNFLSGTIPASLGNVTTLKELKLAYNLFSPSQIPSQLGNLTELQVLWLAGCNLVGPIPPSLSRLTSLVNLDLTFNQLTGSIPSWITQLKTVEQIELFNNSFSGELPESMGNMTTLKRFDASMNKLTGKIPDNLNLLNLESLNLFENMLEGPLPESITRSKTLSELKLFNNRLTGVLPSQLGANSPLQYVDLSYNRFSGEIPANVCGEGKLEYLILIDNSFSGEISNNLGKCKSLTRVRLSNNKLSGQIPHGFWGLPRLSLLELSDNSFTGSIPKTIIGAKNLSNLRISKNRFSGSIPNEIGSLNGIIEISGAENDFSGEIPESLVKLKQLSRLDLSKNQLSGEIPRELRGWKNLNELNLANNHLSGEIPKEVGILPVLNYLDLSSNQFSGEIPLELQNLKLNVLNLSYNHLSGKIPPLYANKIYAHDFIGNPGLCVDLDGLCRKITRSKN

As for “CLE6: CLE6 peptide (earlier reports; not assayed) (RVSPGGPDPQHH; ends and bridges not checked; UniProt Q8S8N3 70-81, looked up)”, the “concentration needed for root shortening activity” value in test [1] (referee's comment, ref Kinoshita et al, 2007, Whitford et al, 2008, Depuydt et al. 2013) is reported as 10 µM. Moreover, the “root growth suppression in words” value in test [1] (tissue culture, nM to low μM concentrations) is listed as “not root-active”. In general, Kd refers to a measure of binding affinity in units of concentration. On to “CLE9gp: arabinosylated CLE9 (RLVPSGPNPLHN; ends and bridges not checked; also: arabinosylated, place not given here; UniProt Q9FZE4 109-120, looked up)”, for which the Kd in test [2] is 0.0022 µM. Take “CLE9p: non-arabinosylated CLE9 (RLVPSGPNPLHN; ends and bridges not checked; UniProt Q9FZE4 109-120, looked up)”: the dissociation constant Kd in test [2] is 0.0018 µM. On to HAESA (from UniProt P47735), for which the values for the Kd in test [3] and in test [4] were 20 µM and 0.35 µM, respectively. As for RKVKTGSNPLHN [CLE20, CLE20: …], the “impact on root growth” value in test [5] is recorded as “significant, reproducible impact on root growth”. The same measure, in the same setting: the value for RKVPNGPDPIHN [CLE25, CLE25: …] was “significant, reproducible impact on root growth”.

As for RLVHTGPNPLHN [CLE16, CLE16: …], the “impact on root growth” value in test [5] is recorded as “significant, reproducible impact on root growth”. The same measure, in the same setting: next, RLVPKGPNPLHN [CLE14, CLE14: …]: “significant, reproducible impact on root growth”; RLVPSGPNPLHH [CLE13, CLE13: …]: “significant, reproducible impact on root growth”.

Regarding RLVPSGPNPLHN [CLE9/10, CLE9/10: …], the “impact on root growth” value in test [5] is given as “significant, reproducible impact on root growth”.

These data come from paper PMC5538625, “Perception of root‐active CLE peptides requires CORYNE function in the phloem vasculature” (EMBO Reports, 2017).
